Laboratory results as given in article PMC6112376, “Comprehensive Analyses and Prioritization of Tox21 10K Chemicals Affecting Mitochondrial Function by in-Depth Mechanistic Studies” (Environmental Health Perspectives, 2018).
Read-outs that look alike come from different tables or passages of the source.

Experiments:
[1] = test system: rat primary hepatocytes; assay: MMP assay in rat primary hepatocytes; details: for IC50: Rattus norvegicus, Hepatocyte, read-out: MMP assays IC50 (µM) Rat Hepatocytes; for MMP assays efficacy (%) Rat Hepatocytes / MMP assays IC50 (µM) Rat Hepatocytes: mean ± SD of three experiments
[2] = test system: HepG2 cells; details: cited from earlier work; for IC50: read-out: MMP assays IC50 (µM), qHTS-HepG2
[3] = test system: HepG2 cells; assay: cells; details: Homo sapiens; for IC50: HepG2, read-out: MMP assays IC50 (µM) HepG2; for Emax: HepG2, read-out: MMP assays efficacy (%) HepG2

Compound | IC50 [1] [µM] | MMP assays efficacy (%) Rat Hepatocytes [1] | MMP assays efficacy (%) qHTS-HepG2 [2] [%] | IC50 [2] [µM] | IC50 [3] [µM] | Emax [3] [%] | MMP assays IC50 (µM) Rat Hepatocytes [1]
COc1ccc(/C=C/C(=O)c2ccc(OC)cc2OC)cc1 [Metochalcone] | 25.5 ± 18.2 | -82±19% | -72±12 | 18.2 ± 10.1 | 39.8 | 119 | –
C[C@@H]1C[C@H]2[C@@H]3CCC4=CC(=O)C=C[C@]4(C)[C@@]3(Cl)[C@@H](O)C[C@]2(C)[C@@]1(OC(=O)c1ccco1)C(=O)CCl [Mometasone furoate] | 14 ± 1.14 | -21±0% | -101±23 | 11.8 ± 0.8 | 8.3 | 71 | –
CCN(CC)c1ccc(N)cc1 [N,N-Diethylbenzene-1,4-diamine] | 31.6 | -105±29% | -103±16 | 49.9 ± 3.51 | 7.94 | 118 | –
O=C1c2ccccc2C(=O)C1(O)O [Ninhydrin] | – | inactive | -86±19 | 32 ± 9.69 | 56.2 | 85 | inactive
O=[N+]([O-])c1ccc(O)c2ncccc12 [Nitroxoline] | 72.3 ± 39.1 | -69±54% | -80±8 | 9.22 ± 2.41 | 19.9 | 94 | –
O=C(Nc1ccc(O)cc1)c1ccccc1O [Osalmid] | 30 ± 21.3 | -93±20% | -96±3 | 6.68 ± 0.77 | 6.31 | 101 | –
CCCCCOC(=O)c1ccc(O)cc1 [Pentylparaben] | – | inactive | -119±16 | 8.74 ± 1.65 | 14.1 | 114 | inactive
CCCOC(=O)c1cc(O)c(O)c(O)c1 [Propyl gallate] | – | inactive | -88±15 | 42.3 ± 3.93 | 35.5 | 97 | inactive
Cc1c(C(=O)NN2CCCCC2)nn(-c2ccc(Cl)cc2Cl)c1-c1ccc(Cl)cc1 [Rimonabant] | 17.4 ± 2.83 | -53±1% | -127±12 | 25.6 ± 1.67 | 17.3 | 73 | –
Oc1c2ccccc2c2c3c(cccc13)N=N2 [SP600125] | 21.1 ± 2.91 | -82±45% | -97±10 | 0.92 ± 0.14 | 1.55 | 105 | –
CC(C)=CCOc1ccc(/C=C/C(=O)c2ccc(OCC=C(C)C)cc2OCC(=O)O)cc1 [Sofalcone] | 19.5 ± 2.25 | -65±23% | -118±8 | 24.6 ± 1.67 | 17.3 | 92 | –
CC(=O)Nc1ccc(S(=O)(=O)Nc2ccc([N+](=O)[O-])cc2)cc1 [Sulfanitran] | 19.5 ± 2.25 | -63±14% | -54±11 | 26.6 ± 8.77 | 17.3 | 67 | –
CCc1c(C(=O)NN2CCCCC2)nn(-c2ccc(Cl)cc2Cl)c1-c1ccc(Br)cc1 [Surinabant] | 34.3 ± 22.5 | -81±29% | -97±6 | 33.1 ± 16.6 | 19.9 | 94 | –
O=C(Nc1ncc([N+](=O)[O-])s1)c1cccs1 [Tenonitrozole] | 0.68 ± 0.45 | – | -95±3 | 0.73 ± 0.12 | 0.56 | 99 | –
CCCCCCCCCCCCCC[n+]1ccccc1 [Tetradecylpyridinium bromide] | 33.5 ± 2.73 | -99±17% | -76±21 | 22.5 ± 4.1 | 17.8 | 102 | –
Clc1ccc(Sc2cc(Cl)c(Cl)cc2Cl)cc1 [Tetrasul] | – | inactive | -77±0 | 1.77 ± 0.25 | 2.51 | 72 | inactive
CCOC1O[C@H]([C@@H](COCc2ccccc2)OCc2ccccc2)[C@H](OCc2ccccc2)[C@H]1O (some centres unmarked) [Tribenoside] | – | inactive | -114±21 | 11.8 ± 0.8 | 11.7 | 61 | inactive
CSc1nc2cc(Cl)c(Oc3cccc(Cl)c3Cl)cc2[nH]1 [Triclabendazole] | 15.6 ± 2.52 | -91±10% | -114±15 | 1.84 ± 0.15 | 5.48 | 97 | –
